Here are results for one compound from patent publication US20250320140A1, “USE OF MEDIUM CHAIN PERACIDS FOR BIOFILM INHIBITION IN INDUSTRIAL RECIRCULATING WATER SYSTEMS” (ECOLAB USA INC., priority 2017, published 2025).

The data set can be described thus: Solubility of sulfonated peracids at pH 4. The following applies: pH of 4. The data set is classed as physicochemical.

On to `O=C(CCCCCCCCCCS(=O)(=O)O)OO` [11-sulfoundecane peroxoic acid], for which the solubility result is “about 1.3%”.
